Data: US20050004092A1, “Penem derivatives and antimicrobial agent containing the same” (DAIICHI SUNTORY PHARMA CO., LTD., priority 1995, published 2005)
Values after ≈ are worked out from the molar mass of the structure shown. Like-named read-outs stand apart in the source and are kept apart here.

Tests used:
Assay in all cases: antibacterial activity (MIC), standard in vitro dilution test
[1] = system: MRSA 31 high-resist. (IPM resist.); assay type: cell-based, Staphylococcus aureus; conditions: for MIC: Staphylococcus aureus, MRSA, read-out: MIC, MRSA 31 high-resist. (IPM resist.)
Text: (§1) With respect to certain compounds (I) of the present invention, their general antibacterial activities and their antibacterial activities (MIC) against various methicillin-resistant strains of Staphylococcus aureus (methicillin-resistant Staphylococcus aureus: MRSA) were investigated. The results will be shown next.
(§2) Of the investigations, the general antibacterial activities were investigated by a standard in vitro dilution test.
(§3) As test bacteria, Staphylococcus aureus 209P JC-1, Escherichia coli NIHJ JC-2 and MRSAs were used.

[2] = system: MRSA 33 high-resist. (IPM resist.); assay type: cell-based, Staphylococcus aureus; conditions: for MIC: Staphylococcus aureus, MRSA, read-out: MIC, MRSA 33 high-resist. (IPM resist.)
Text: as §1, §2, §3

[3] = system: Escherichia coli NIHJ JC-2 strain; assay type: cell-based; conditions: for MIC, Escherichia coli NIHJ JC-2 strain: test bacterium strain 10^5 cfu/ml; for MIC: Escherichia coli
Text: as §1, §2, §3

[4] = system: Staphylococcus aureus 209P JC-1 strain; assay type: cell-based; conditions: for MIC: Staphylococcus aureus, 209P, read-out: MIC, Staphylococcus aureus 209P JC-1 strain
Text: as §1, §2, §3

[5] = test bacterium strain 10^5 cfu/ml
[6] = NIHJJC2, test bacterium strain 10^5 cfu/ml, read-out: MIC, Escherichia coli NIHJ JC-2 strain

C=CCN1CCC(SC2=C(C(=O)O)N3C(=O)[C@@H]([C@@H](O)CC)[C@H]3S2)C1 (stereo partly drawn) [Ex. 17, (5R,6R)-2-(1-allyl-3-pyrrolidine)-thio-6-((S)-1-hydroxypropyl)penem-3-carboxylic acid]
MIC, MRSA 31 high-resist. (IPM resist.) [1, 5]: 3.13 µg/mL (≈ 8.45 µM)
MIC, MRSA 33 high-resist. (IPM resist.) [2, 5]: 3.13 µg/mL (≈ 8.45 µM)
MIC, Escherichia coli NIHJ JC-2 strain [3]: 0.39 µg/mL (≈ 1.05 µM)
MIC, Staphylococcus aureus 209P JC-1 strain [4, 5]: 0.10 µg/mL (≈ 0.27 µM)

C=CCN1CCC(SC2=C(C(=O)O)N3C(=O)[C@@H]([C@@H](O)CC)[C@H]3S2)C1 (stereo partly drawn) [Ex. 18, (5R,6R)-2-(1-allyl-3-pyrrolidine)-thio-6-((S)-1-hydroxypropyl)penem-3-carboxylic acid]
MIC, MRSA 31 high-resist. (IPM resist.) [1, 5]: 3.13 µg/mL (≈ 8.45 µM)
MIC, MRSA 33 high-resist. (IPM resist.) [2, 5]: 3.13 µg/mL (≈ 8.45 µM)
MIC, Escherichia coli NIHJ JC-2 strain [3]: 0.39 µg/mL (≈ 1.05 µM)
MIC, Staphylococcus aureus 209P JC-1 strain [4, 5]: ≦0.025 μg/ml

CC[C@H](O)[C@]1(C(=O)O)C(=O)N2C=C(S[C@H]3CCN(Cc4ccccc4)C3)S[C@@H]21 [Ex. 44, (5R,6R)-2-((S)-1-benzylpyrrolidin-3-yl)thio-6-((S)-1-hydroxypropyl)penem-6-carboxylic acid]
MIC [1, 5]: 3.13 µg/mL (≈ 7.44 µM)
MIC [2, 5]: 3.13 µg/mL (≈ 7.44 µM)
MIC [3, 6]: 3.13 µg/mL (≈ 7.44 µM)
MIC [4, 5]: 0.1 µg/mL (≈ 0.238 µM)

CC[C@H](O)[C@@H]1C(=O)N2C(C(=O)O)=C(S[C@H]3CCN(C(C)=N)C3)S[C@H]12 [Ex. 103, (5R,6R)-2-((S)-1-(1-iminoethyl)-pyrrolidin-3-yl)thio-6-((S)-1-hydroxypropyl)-penem-3-carboxylic acid]
MIC [1, 5]: 3.13 µg/mL (≈ 8.43 µM)
MIC [2, 5]: 3.13 µg/mL (≈ 8.43 µM)
MIC [3, 6]: 0.39 µg/mL (≈ 1.05 µM)
MIC [4, 5]: 0.1 µg/mL (≈ 0.269 µM)

CC[C@H](O)[C@@H]1C(=O)N2C(C(=O)O)=C(SC3CCN(c4ccccc4)C3)S[C@H]12 (stereo partly drawn) [Ex. 105, (5R,6R)-6-((S)-1-hydroxypropyl)-2-(1-phenylpyrrolidin-3-yl)thiopenem-3-carboxylic acid]
MIC [1, 5]: 1.56 µg/mL (≈ 3.84 µM)
MIC [2, 5]: 1.56 µg/mL (≈ 3.84 µM)
MIC [3, 6]: > 12.5 µg/mL
MIC [4, 5]: 0.1 µg/mL (≈ 0.246 µM)

CC[C@H](O)[C@@H]1C(=O)N2C(C(=O)O)=C(S[C@H]3CCN(C[C@@H](O)c4ccccc4)C3)S[C@H]12 [Ex. 107, (5R,6R)-6-((S)-1-hydroxypropyl)-2-(1-((S)-2-hydroxy-2-phenylethyl)pyrrolidin-3-yl)thiopenem-3-carboxylic acid]
MIC [1, 5]: 6.25 µg/mL (≈ 13.9 µM)
MIC [2, 5]: 6.25 µg/mL (≈ 13.9 µM)
MIC [3, 6]: 1.56 µg/mL (≈ 3.46 µM)
MIC [4, 5]: 0.1 µg/mL (≈ 0.222 µM)

CC[C@H](O)[C@@H]1C(=O)N2C(C(=O)O)=C(S[C@H]3CCN(CC(=O)c4ccccc4)C3)S[C@H]12 [Ex. 111, (5R,6R)-6-((S)-1-hydroxypropyl)-2-((S)-1-phenacylpyrrolidin-3-yl)thiopenem-3-carboxylic acid]
MIC [1, 5]: 3.13 µg/mL (≈ 6.98 µM)
MIC [2, 5]: 3.13 µg/mL (≈ 6.98 µM)
MIC [3, 6]: 0.2 µg/mL (≈ 0.446 µM)
MIC [4, 5]: 0.1 µg/mL (≈ 0.223 µM)

CC[C@H](O)[C@@H]1C(=O)N2C(C(=O)O)=C(S[C@H]3CCN(CC(=O)c4ccc(F)cc4)C3)S[C@H]12 [Ex. 112, (5R,6R)-2-((S)-1-(2-p-fluorophenyl-2-oxoethyl)pyrrolidin-3-yl)thio-6-((S)-1-hydroxypropyl)penem-3-carboxylic acid]
MIC [1, 5]: 6.25 µg/mL (≈ 13.4 µM)
MIC [2, 5]: 6.25 µg/mL (≈ 13.4 µM)
MIC [3, 6]: 0.78 µg/mL (≈ 1.67 µM)
MIC [4, 5]: 0.1 µg/mL (≈ 0.214 µM)

CC[C@H](O)[C@@H]1C(=O)N2C(C(=O)O)=C(S[C@H]3CCN(CC(=O)c4ccc(C)cc4)C3)S[C@H]12 [Ex. 113, (5R,6R)-6-((S)-1-hydroxypropyl)-2-((S)-1-(2-oxo-2-p-tolylethyl)pyrrolidin-3-yl)-thiopenem-3-carboxylic acid]
MIC [1, 5]: 6.25 µg/mL (≈ 13.5 µM)
MIC [2, 5]: 6.25 µg/mL (≈ 13.5 µM)
MIC [3, 6]: 0.39 µg/mL (≈ 0.843 µM)
MIC [4, 5]: 0.1 µg/mL (≈ 0.216 µM)

CC[C@H](O)[C@@H]1C(=O)N2C(C(=O)O)=C(S[C@H]3CCN(CC(=O)c4ccc(OC)cc4)C3)S[C@H]12 [Ex. 114, (5R,6R)-6-((S)-1-hydroxypropyl)-2-((S)-1-(2-p-methoxyphenyl-2-oxoethyl)pyrrolidin-3-yl)thiopenem-3-carboxylic acid]
MIC [1, 5]: 6.25 µg/mL (≈ 13.1 µM)
MIC [2, 5]: 6.25 µg/mL (≈ 13.1 µM)
MIC [3, 6]: 0.2 µg/mL (≈ 0.418 µM)
MIC [4, 5]: 0.2 µg/mL (≈ 0.418 µM)

CC[C@H](O)[C@@H]1C(=O)N2C(C(=O)O)=C(S[C@H]3CCN(CCC(=O)c4ccccc4)C3)S[C@H]12 [Ex. 116, (5R,6R)-2-((S)-1-(2-benzoylethyl)-pyrrolidin-3-yl)thio-6-((S).-1-hydroxypropyl)-penem-3-carboxylic acid]
MIC [1, 5]: 3.13 µg/mL (≈ 6.77 µM)
MIC [2, 5]: 3.13 µg/mL (≈ 6.77 µM)
MIC [3, 6]: 0.2 µg/mL (≈ 0.432 µM)
MIC [4, 5]: 0.05 µg/mL (≈ 0.108 µM)

CC[C@H](O)[C@@H]1C(=O)N2C(C(=O)O)=C(S[C@H]3CCN(C(C)C(=O)c4ccccc4)C3)S[C@H]12 (stereo partly shown) [Ex. 117]
MIC [1]: 6.25 µg/mL (≈ 13.5 µM)
MIC [2]: 6.25 µg/mL (≈ 13.5 µM)
MIC ([3]; NIHJJC2, read-out: MIC, Escherichia coli NIHJ JC-2 strain): 1.56 µg/mL (≈ 3.37 µM)
MIC [4]: 0.1 µg/mL (≈ 0.216 µM)

CC[C@H](O)[C@@H]1C(=O)N2C(C(=O)O)=C(S[C@H]3CCN(Cc4ccccn4)C3)S[C@H]12 [Ex. 123, (5R,6R)-6-((S)-1-hydroxypropyl)-2-((S)-1-(2-pyridylmethyl)pyrrolidin-3-yl)thiopenem-3-carboxylic acid]
MIC [1, 5]: 6.25 µg/mL (≈ 14.8 µM)
MIC [2, 5]: 6.25 µg/mL (≈ 14.8 µM)
MIC [3, 6]: 3.13 µg/mL (≈ 7.43 µM)
MIC [4, 5]: 0.2 µg/mL (≈ 0.474 µM)

CC[C@H](O)[C@@H]1C(=O)N2C(C(=O)O)=C(SC3CCCN(Cc4ccccc4)C3)S[C@H]12 (stereo partly shown) [Ex. 125*^4]
MIC [1, 5]: 6.25 µg/mL (≈ 14.4 µM)
MIC [2, 5]: 6.25 µg/mL (≈ 14.4 µM)
MIC [3, 6]: 12.5 µg/mL (≈ 28.8 µM)
MIC [4, 5]: 0.2 µg/mL (≈ 0.46 µM)

CC[C@H](O)[C@@H]1C(=O)N2C(C(=O)O)=C(SCc3ccccn3)S[C@H]12 [Ex. 129, (5R,6R)-6-((S)-1-hydroxypropyl)-2-(2-pyridylmethyl)thiopenem-3-carboxylic acid]
MIC [1, 5]: 6.25 µg/mL (≈ 17.7 µM)
MIC [2, 5]: 6.25 µg/mL (≈ 17.7 µM)
MIC [3, 6]: 6.25 µg/mL (≈ 17.7 µM)
MIC [4, 5]: 0.2 µg/mL (≈ 0.567 µM)

CC[C@H](O)[C@@H]1C(=O)N2C(C(=O)O)=C(SCCNC(C)=N)S[C@H]12 [Ex. 131, (5R,6R)-2-(2-(1-iminoethylamino)-ethyl)thio-6-((S)-1-hydroxypropyl)penem-3-carboxylic acid]
MIC [1, 5]: 6.25 µg/mL (≈ 18.1 µM)
MIC [2, 5]: 6.25 µg/mL (≈ 18.1 µM)
MIC [3, 6]: 0.78 µg/mL (≈ 2.26 µM)
MIC [4, 5]: 0.1 µg/mL (≈ 0.289 µM)

CC[C@H](O)[C@@H]1C(=O)N2C(C(=O)O)=C(SCCNC(=N)c3ccccc3)S[C@H]12 [Ex. 132, (5R,6R)-2-(2-(α-iminobenzyl)-aminoethyl)thio-6-((S)-1-hydroxypropyl)penem-3-carboxylic acid]
MIC [1, 5]: 6.25 µg/mL (≈ 15.3 µM)
MIC [2, 5]: 6.25 µg/mL (≈ 15.3 µM)
MIC [3, 6]: 1.56 µg/mL (≈ 3.83 µM)
MIC [4, 5]: 0.1 µg/mL (≈ 0.245 µM)

CC[C@H](O)[C@@H]1C(=O)N2C(C(=O)O)=C(SCCC(=O)Nc3ccccc3)S[C@H]12 [Ex. 134, (5R,6R)-6-((S)-1-hydroxypropyl)-2-(2-phenylaminocarbonylethyl)thiopenem-3-carboxylic acid]
MIC [1, 5]: 6.25 µg/mL (≈ 15.3 µM)
MIC [2, 5]: 6.25 µg/mL (≈ 15.3 µM)
MIC [3, 6]: 12.5 µg/mL (≈ 30.6 µM)
MIC [4, 5]: 0.39 µg/mL (≈ 0.955 µM)

CC[C@H](O)[C@@H]1C(=O)N2C(C(=O)O)=C(SCCN)S[C@H]12 [Ex. 140, (5R,6R)-2-(2-aminoethyl)thio-6-((S)-1-hydroxypropyl)penem-3-carboxylic acid]
MIC [1, 5]: 6.25 µg/mL (≈ 20.5 µM)
MIC [2, 5]: 6.25 µg/mL (≈ 20.5 µM)
MIC [3, 6]: 0.73 µg/mL (≈ 2.4 µM)
MIC [4, 5]: 0.1 µg/mL (≈ 0.329 µM)

CC[C@H](O)[C@@H]1C(=O)N2C(C(=O)O)=C(SCCN(C)CC(=O)c3ccccc3)S[C@H]12 [Ex. 142, (5R,6R)-6-((S)-1-hydroxypropyl)-2-(2-(N-methyl-N-phenacylamino)ethyl)thiopenem-3-carboxylic acid]
MIC [1, 5]: 6.25 µg/mL (≈ 14.3 µM)
MIC [2, 5]: 6.25 µg/mL (≈ 14.3 µM)
MIC [3, 6]: 0.78 µg/mL (≈ 1.79 µM)
MIC [4, 5]: 0.1 µg/mL (≈ 0.229 µM)

CC[C@H](O)[C@@H]1C(=O)N2C(C(=O)O)=C(SCCN3CCCC3)S[C@H]12 [Ex. 143, (5R,6R)-6-((S)-1-hydroxypropyl)-2-(2-(pyrrolidin-1-yl)ethyl)thiopenem-3-carboxylic acid]
MIC [1, 5]: 6.25 µg/mL (≈ 17.4 µM)
MIC [2, 5]: 6.25 µg/mL (≈ 17.4 µM)
MIC [3, 6]: 3.13 µg/mL (≈ 8.73 µM)
MIC [4, 5]: 0.39 µg/mL (≈ 1.09 µM)

CC[C@H](O)[C@@H]1C(=O)N2C(C(=O)O)=C(SCCn3cccc3)S[C@H]12 [Ex. 147, (5R,6R)-6-((S)-1-hydroxypropyl)-2-(2-(1-pyrrolyl)ethyl)thiopenem-3-carboxylic acid]
MIC [1, 5]: 3.13 µg/mL (≈ 8.83 µM)
MIC [2, 5]: 3.13 µg/mL (≈ 8.83 µM)
MIC [3, 6]: 6.25 µg/mL (≈ 17.6 µM)
MIC [4, 5]: 0.2 µg/mL (≈ 0.564 µM)
